From the supplement of paper PMC11451515

Tested on: P12-Ichikawa
Assay: cell viability relative to DMSO control; higher = less cytotoxic
Conditions: 48 h
Procedure, shortened: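 NOMO1 or SEM (500 cells/well) or P12-Ichikawa (1000 cells/well) leukemia cells were adapted for at least four passages in each medium. They were seeded in 1536-well plates (5 μl) and pin-dosed with library compounds in DMSO over an 11-point threefold series, 47 μM to 0.79 nM. CellTiter-Glo One luminescence was read after 48 h at 37°C. Viability is the per-plate percentage relative to DMSO wells, with cell-free wells as background.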

[1] = HPLM + 10% dialyzed FBS, 0.000781 µM
[2] = HPLM + 10% dialyzed FBS, 0.00234 µM
[3] = HPLM + 10% dialyzed FBS, 0.00702 µM
[4] = HPLM + 10% dialyzed FBS, 0.0211 µM
[5] = HPLM + 10% dialyzed FBS, 0.0632 µM
[6] = HPLM + 10% dialyzed FBS, 0.19 µM
[7] = HPLM + 10% dialyzed FBS, 0.569 µM
[8] = HPLM + 10% dialyzed FBS, 1.71 µM
[9] = HPLM + 10% dialyzed FBS, 5.12 µM
[10] = HPLM + 10% dialyzed FBS, 15.4 µM
[11] = HPLM + 10% dialyzed FBS, 46.1 µM
[12] = RPMI 5 mM glucose + 10% FBS, 0.000781 µM
[13] = RPMI 5 mM glucose + 10% FBS, 0.00234 µM
[14] = RPMI 5 mM glucose + 10% FBS, 0.00702 µM
[15] = RPMI 5 mM glucose + 10% FBS, 0.0211 µM
[16] = RPMI 5 mM glucose + 10% FBS, 0.0632 µM
[17] = RPMI 5 mM glucose + 10% FBS, 0.19 µM
[18] = RPMI 5 mM glucose + 10% FBS, 0.569 µM
[19] = RPMI 5 mM glucose + 10% FBS, 1.71 µM
[20] = RPMI 5 mM glucose + 10% FBS, 5.12 µM
[21] = RPMI 5 mM glucose + 10% FBS, 15.4 µM
[22] = RPMI 5 mM glucose + 10% FBS, 46.1 µM
[23] = RPMI 5 mM glucose + 10% dialyzed FBS, 0.000781 µM
[24] = RPMI 5 mM glucose + 10% dialyzed FBS, 0.00234 µM
[25] = RPMI 5 mM glucose + 10% dialyzed FBS, 0.00702 µM
[26] = RPMI 5 mM glucose + 10% dialyzed FBS, 0.0211 µM
[27] = RPMI 5 mM glucose + 10% dialyzed FBS, 0.0632 µM
[28] = RPMI 5 mM glucose + 10% dialyzed FBS, 0.19 µM
[29] = RPMI 5 mM glucose + 10% dialyzed FBS, 0.569 µM
[30] = RPMI 5 mM glucose + 10% dialyzed FBS, 1.71 µM
[31] = RPMI 5 mM glucose + 10% dialyzed FBS, 5.12 µM
[32] = RPMI 5 mM glucose + 10% dialyzed FBS, 15.4 µM
[33] = RPMI 5 mM glucose + 10% dialyzed FBS, 46.1 µM

Row | Compound | cell viability [1] | cell viability [2] | cell viability [3] | cell viability [4] | cell viability [5] | cell viability [6] | cell viability [7] | cell viability [8] | cell viability [9] | cell viability [10] | cell viability [11] | cell viability [12] | cell viability [13] | cell viability [14] | cell viability [15] | cell viability [16] | cell viability [17] | cell viability [18] | cell viability [19] | cell viability [20] | cell viability [21] | cell viability [22] | cell viability [23] | cell viability [24] | cell viability [25] | cell viability [26] | cell viability [27] | cell viability [28] | cell viability [29] | cell viability [30] | cell viability [31] | cell viability [32] | cell viability [33]
1 | CC(C)NCC(O)COc1ccc(COCCOC(C)C)cc1 (stereo unspecified) | 115% | 117% | 105% | 103% | 113% | 118% | 112% | 96.5% | 92.6% | 107% | 99.5% | 113% | 121% | 120% | 120% | 131% | 124% | 115% | 110% | 110% | 116% | 115% | 113% | 106% | 107% | 111% | 114% | 104% | 105% | 104% | 104% | 104% | 104%
2 | COC1CCC(CC1)N(C(=O)C2CCC(C)CC2)C3=C(SC(=C3)\C4=C\CCCC4)C(O)=O (stereo unspecified) | 118% | 118% | 116% | 111% | 108% | 113% | 111% | 104% | 95.3% | 83.5% | 60% | 109% | 112% | 109% | 108% | 92.8% | 106% | 105% | 98.2% | 94.9% | 88.7% | 65.6% | 103% | 105% | 111% | 110% | 101% | 102% | 105% | 97.6% | 98.9% | 77.8% | 63.9%
3 | COC1=CC=CC=C1C2=CC=CC(=C2)C/3=C(O)/C4=CC(=C(Cl)C=C4NC3=O)C#N | 98.4% | 106% | 111% | 114% | 107% | 112% | 109% | 92.8% | 10.2% | 6.7% | 10.6% | 99.3% | 110% | 107% | 116% | 123% | 115% | 114% | 106% | 64.3% | 4.25% | 5.71% | 95.2% | 99.1% | 105% | 105% | 99.6% | 101% | 110% | 94% | 45.5% | 5.98% | 6.01%
4 | COc1c(C)cnc(Cn2cnc3c(Cl)nc(N)nc32)c1C | 109% | 114% | 106% | 125% | 118% | 104% | 85.1% | 67.9% | 55.1% | 50.2% | 50.5% | 116% | 123% | 125% | 125% | 124% | 94.1% | 61.6% | 50.5% | 48% | 40.9% | 38.1% | 110% | 121% | 119% | 116% | 115% | 99.8% | 58.3% | 47.8% | 45.1% | 40.9% | 37.9%
5 | C[C@@H](NC1=CC=CC=C1C(O)=O)C/2=C/C(=C\N3C(=O)/C=C(\N=C23)N4CCOCC4)C | 87.2% | 87% | 101% | 94.1% | 95.9% | 93.2% | 97.1% | 89.3% | 75% | 60.5% | 39.9% | 82.4% | 78.7% | 83.5% | 97.1% | 92.1% | 84.7% | 85.7% | 72.2% | 59.2% | 47.9% | 27.6% | 77.7% | 85.3% | 93.1% | 92.9% | 90.5% | 88.4% | 80% | 87.4% | 61.9% | 46.3% | 33.1%
6 | CC(=O)O.Cc1c(-c2ccc(O)cc2)n(Cc2ccc(OCCN3CCCCCC3)cc2)c2ccc(O)cc12 | 103% | 101% | 99.2% | 98.1% | 101% | 111% | 101% | 106% | 106% | 101% | 100% | 92.3% | 92.5% | 92.4% | 87.6% | 99.3% | 103% | 96.1% | 109% | 101% | 100% | 101% | 89.2% | 94.5% | 96.3% | 94.5% | 92.5% | 98.9% | 98.3% | 95.4% | 113% | 104% | 100%
7 | CC1=C(/C=C/C(C)=C/C=C/C(C)=C/C=C/C=C(C)/C=C/C=C(C)/C=C/C2=C(C)CCCC2(C)C)C(C)(C)CCC1 | 112% | 112% | 109% | 110% | 109% | 106% | 108% | 107% | 112% | 95.1% | 99.3% | 111% | 119% | 110% | 111% | 116% | 105% | 111% | 109% | 108% | 95.8% | 95.4% | 117% | 113% | 118% | 108% | 109% | 106% | 107% | 106% | 106% | 103% | 85.7%
